Results taken from patent US6787560B2, “Serotonin reuptake inhibitor” (Sumitomo Pharmaceuticals Company Limited, priority 2000, dated 2004).

Legend:
[1] = target: T1, serotonin 1A receptors ([3H]8-OH-DPAT binding, hippocampus membrane preparation) (Rattus norvegicus, UniProt P19327); test: [3H]8-OH-DPAT binding test (Test Example 2); details: 2 nM [3H]8-OH-DPAT, test agent concentration not given, read-out: Rate of inhibition of [^3H] 8-OH-DPAT binding (%)
T1 construct: 146 μl of the hippocampus membrane preparation (80 μg/tube in terms of protein); from tissue; host or cells: male rat hippocampus membrane preparation
T1 sequence (P19327 1-422): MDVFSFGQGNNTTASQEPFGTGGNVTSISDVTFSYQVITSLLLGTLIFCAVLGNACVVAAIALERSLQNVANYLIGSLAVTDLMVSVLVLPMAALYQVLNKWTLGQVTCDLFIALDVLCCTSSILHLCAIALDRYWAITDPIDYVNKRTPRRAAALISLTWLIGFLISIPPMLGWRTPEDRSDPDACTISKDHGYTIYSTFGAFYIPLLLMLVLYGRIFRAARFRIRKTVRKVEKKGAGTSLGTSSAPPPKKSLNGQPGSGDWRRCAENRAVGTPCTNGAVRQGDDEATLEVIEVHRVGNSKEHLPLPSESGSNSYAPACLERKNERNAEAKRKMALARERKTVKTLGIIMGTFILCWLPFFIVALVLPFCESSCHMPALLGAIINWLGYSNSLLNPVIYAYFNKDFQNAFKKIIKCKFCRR
Protocol: [^3H]18-OH-DPAT Binding Test
The test was carried out according to the method^2) of Hall M. D. et al. After pre-breeding for about 1 week, a male rat was decapitated and the brain was immediately removed. The hippocampus was separated from the brain on ice, and 50 mM Tris-HCl (pH=7.4) was added to the hippocampus in an amount of 40 times the wet weight of the hippocampus, followed by homogenization (3 min, 1 stroke/min) in an ice bath by the use of a Teflon-glass homogenizer. Then, the homogenate was centrifuged (4° C.) at 40,000×g for 10 minutes. The resulting precipitate was dispersed in an ice-cooled buffer solution (50 mM Tris-HCl (pH=7.4)) by the use of Hiscotron, followed by centrifugation (4° C.) at 40,000×g for 10 minutes. Moreover, the resulting precipitate was re-suspended and the washing procedure was repeated once. The precipitate thus obtained was dispersed in an ice-cooled buffer solution (50 mM Tris-HCl (pH=7.4)) by the use of Hiscotron™, and the resulting dispersion was incubated at 37° C. for 1 hour and then centrifuged (4° C.) at 40,000×g for 10 minutes. Furthermore, the resulting precipitate was re-suspended and the washing procedure was repeated once. The resulting membrane preparation was suspended in the same buffer solution as described above, and then subjected to cryopreservation at −80° C.
Measurement was carried out by using a liquid for reaction obtained by adding 50 μl of [^3H]8-OH-DPAT (final concentration: 2 nM), 4 μl of a solution of a test agent and 146 μl of the hippocampus membrane preparation (80 μg/tube in terms of protein) to a buffer solution containing 50 mM Tris-HCl (pH=7.4) and 4 mM CaCl2 to make a total volume of 200 μl. The liquid for reaction was allowed to react at room temperature for 30 minutes and then rapidly filtered by suction at a low pressure through glass fiber filter paper. The glass fiber filter paper was washed twice with 250 μl of a buffer solution and then added to a glass vial containing 4 ml of ACS-II (Amersham), and the radioactivity bound to receptors and remaining on the filter paper was measured with a liquid scintillation counter. The amount of [^3H]8-OH-DPAT bound in the presence of 1 μM of 8-OH-DPAT was taken as the amount of [^3H]8-OH-DPAT non-specifically bound.
(§1) Rate of binding inhibition was calculated by the following equation:
Rate of binding inhibition (%)=100−100×{[amount of [^3H]8-OH-DPAT bound in the presence of test substance]−[amount of [^3H]8-OH-DPAT bound in the presence of 1 μM 8-OH-DPAT]/[amount of [^3H]8-OH-DPAT bound in the absence of test substance]−[amount of [^3H]8-OH-DPAT bound in the presence of 1 μM 8-OH-DPAT]}

[2] = target: T2, [3H]citalopram binding site, cerebral cortex membrane preparation (serotonin reuptake) (Rattus norvegicus, UniProt P31652); test: Screening test using [3H]citalopram binding (Test Example 1); details: 0.7 nM [3H]citalopram, test agent concentration not given, read-out: Rate of inhibition of [^3H] citalopram binding (%)
T2 construct: 146 μl of the cerebral cortex membrane preparation (72 μg/well in terms of protein); from tissue; host or cells: male rat cerebral cortex membrane preparation
Protocol: Screening Test Using [^3H[Citalopram Binding
1-1. Preparation of a Cerebral Cortex Membrane Preparation
The membrane preparation was prepared according to the method^1) of D'amato et al. In detail, after a male rat was decapitated, the whole brain was immediately removed and the cerebral cortex was separated therefrom under ice-cooling. A buffer solution (50 mM Tris-HCl (pH=7.4), 120 mM NaCl, 5 mM KCl) was added to the cerebral cortex in an amount of 2.5 times the wet weight of the cerebral cortex, followed by homogenization in an ice bath by the use of a Teflon-glass homogenizer. The homogenate was centrifuged at 4° C. and 45,000×g for 10 minutes, and the resulting precipitate was dispersed in an ice-cooled buffer solution (50 mM Tris-HCl (pH=7.4), 120 mM NaCl, 5 mM KCl) by the use of Hiscotron™, followed by centrifugation at 4° C. and 45,000×g for 10 minutes. The resulting precipitate was re-suspended and the washing procedure was repeated. The membrane preparation thus obtained was suspended in the same buffer solution as described above, and then subjected to cryopreservation at −80° C.
1-2 Receptor Binding Experiment
[^3H]citalopram binding was measured according to the method^1) of D'amato et al. In detail, 50 μl of a dilution (final concentration: 0.7 nM) of [^3H]citalopram with 50 mM Tris-HCl (pH=7.4) buffer containing 120 mM NaCl and 5 mM KCl, 146 μl of the cerebral cortex membrane preparation (72 μg/well in terms of protein) and 4 μl of a solution of a test agent in dimethyl sulfoxide were mixed to make a total volume of 200 μl. The resulting liquid was allowed to react at room temperature for 60 minutes and then rapidly filtered by suction at a low pressure through glass fiber filter paper. The glass fiber filter paper was washed twice with 250 μl of the same buffer solution as above and then transferred to a glass vial containing 4 ml of ACS-II (Amersham), and the radio-activity remaining on the filter paper was measured with a liquid scintillation counter.
The amount of [^3H]citalopram bound in the presence of 100 μM 5-HT was taken as the amount of [^3H]citalopram non-specifically bound.
as §1
Rate of binding inhibition (%)=100−100×{[amount of [^3H]citalopram bound in the presence of test agent]−[amount of [^3H]citalopram bound in the presence of 100 μM 5-HT]/[amount of [^3H]citalopram bound in the absence of test agent]−[amount of [^3H]citalopram bound in the presence of 100 μM 5-HT]}

[3] = target: T3, human 5-HT1A receptors (human 5-HT1A/CHO membrane preparation) (Homo sapiens, UniProt P08908); test: 5-HT1A receptor actuation test, [35S]GTPγS binding (Test Example 3); format: biochemical; details: 10^-5 M test substance; rate of increase in [35S]GTPγS binding, increase due to 10 μM 5-HT taken as 100%
T3 construct: expressed in transfected cells; host or cells: CHO cells (human 5-HT1A/CHO), Geneticin-selected
T3 sequence (P08908 1-422): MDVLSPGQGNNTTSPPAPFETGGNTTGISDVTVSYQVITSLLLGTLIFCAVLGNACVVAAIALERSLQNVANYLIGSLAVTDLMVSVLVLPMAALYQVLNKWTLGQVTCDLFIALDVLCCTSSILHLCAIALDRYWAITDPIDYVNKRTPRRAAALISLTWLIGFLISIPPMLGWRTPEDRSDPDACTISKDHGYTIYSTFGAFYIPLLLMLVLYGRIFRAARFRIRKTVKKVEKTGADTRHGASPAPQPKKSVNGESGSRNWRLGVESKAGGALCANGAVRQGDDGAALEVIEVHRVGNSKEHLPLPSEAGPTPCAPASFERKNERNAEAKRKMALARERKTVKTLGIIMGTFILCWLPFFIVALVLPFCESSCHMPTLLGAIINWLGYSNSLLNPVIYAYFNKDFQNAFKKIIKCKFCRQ
Protocol: 5-HT1A Receptor Actuation Test
3-1. Cells Used and Preparation of a Membrane Preparation
Human ^5-HT1A receptor expression CHO cells (human 5-HT1A/CHO) were used in the experiment. The cells were cultured on F12 containing 10% FCS, 500 μg/ml Geneticin and 100 U/ml penicillin-100 μg/ml streptomycin (all available from GIBCO) in a 5% CO2 incubator, and a membrane preparation was prepared according to the method^3) of A. Newman et al. In detail, cells peeled and collected by the use of buffer solution A (20 mM HEPES, 5 mM MgSO4) were homogenized in a Teflon homogenizer, followed by centrifugation (50,000×g, 30 min, 4° C.). The precipitate was re-suspended in a suitable volume of buffer solution A and stored at −80° C. until use The amount of proteins in the membrane preparation was determined with Dye Reagent Concentrate (BIO-RAD) by using Albumin Bovine (SIGMA) as a standard substance.
Binding of [^35S]GTPγS to human 5-HT1A receptors was measured by the use of the above-mentioned membrane preparation according to the method^3) of Newman et al. In detail, 0.05 nM of [^35S]GTPγS (E. I. du Pont de Nemours & Co. NEN) and a definite amount (about 50 μg/tube) of the membrane preparation were added to buffer solution B (20 mM HEPES, 3 mM MgSO4, 3 μM GDP, 1 mM DTT) containing 10^−5M of each test substance, and the resulting liquid for reaction having a total volume of 1 ml was incubated at 22° C. for 20 minutes. After completion of the reaction, the reaction mixture was diluted with 5 ml of ice-cooled buffer solution B, and the dilution was rapidly filtered by suction at a low pressure through glass fiber filter paper (Whatman, GF/B) to terminate the reaction. The glass fiber filter paper was washed twice with the same buffer solution as above and placed in a vial, and 4 ml of ACS-II was added thereto. The radioactivity of [^35S]GTPγS on the filter paper was measured with a liquid scintillation counter. The amount of [^35S]GTPγS specifically bound was calculated from the amount of [^35S]GTPγS non-specifically bound in the presence of 10 μM of GTPγS (Sigma). The 5-HTLA receptor actuating activity of each test substance was expressed in terms of the rate of increase in [^35S]GTPγS binding by taking an increase in [^35S]GTPγS binding due to 10 μM of 5-HT as 100%.

T2 sequence (P31652 whole entry): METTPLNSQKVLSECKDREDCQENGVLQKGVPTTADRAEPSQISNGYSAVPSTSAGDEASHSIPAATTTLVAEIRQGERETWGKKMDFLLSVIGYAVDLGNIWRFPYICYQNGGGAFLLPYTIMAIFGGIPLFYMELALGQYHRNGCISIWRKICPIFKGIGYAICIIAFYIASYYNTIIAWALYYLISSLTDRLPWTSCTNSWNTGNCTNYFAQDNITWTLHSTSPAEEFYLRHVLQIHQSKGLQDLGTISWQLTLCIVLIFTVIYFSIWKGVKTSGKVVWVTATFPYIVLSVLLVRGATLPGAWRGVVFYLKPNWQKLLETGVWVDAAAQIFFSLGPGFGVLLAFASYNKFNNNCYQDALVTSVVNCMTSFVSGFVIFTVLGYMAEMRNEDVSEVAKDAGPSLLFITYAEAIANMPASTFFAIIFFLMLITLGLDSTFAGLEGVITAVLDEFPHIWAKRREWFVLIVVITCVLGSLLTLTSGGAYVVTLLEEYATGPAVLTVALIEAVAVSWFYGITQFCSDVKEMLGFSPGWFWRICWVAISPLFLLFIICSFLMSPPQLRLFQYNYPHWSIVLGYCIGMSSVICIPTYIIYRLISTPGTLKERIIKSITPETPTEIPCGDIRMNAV

inhibition [1] [%] | inhibition [2] [%] | 5-HT14 receptor actuating activity (%) [3] [%] | Structure (SMILES)
47 | 98 | 48 | NC(=O)c1cccc(CCN2CCC(Cc3ccccc3Br)CC2)c1 [Example 49]
98 | 100 | 19 | COc1ccc(Br)c(CC2CCN(Cc3cccc(C(=O)NCc4ccccc4)c3)CC2)c1 [Example 12]
72 | 100 | 49 | COc1ccc(Cl)c(CC2CCN(CCCN3C(=O)c4ccccc4C3=O)CC2)c1 [Example 82, N-(3-phthaliminopropyl)-4-(2-chloro-5-methoxybenzyl)piperidine]
94 | 91 | 52 | COc1ccc(Br)c(CC2CCN(CCc3cccnc3)CC2)c1 [Example 103, N-(2-(3-pyridyl)ethyl)-4-(2-bromo-5-methoxybenzyl)piperidine]
74 | 86 | 48 | CCOc1ccc(Br)c(CC2CCN(CCc3ccccc3Cl)CC2)c1 [Example 169, N-(2-(2-chlorophenyl)ethyl)-4-(2-bromo-5-ethoxybenzyl)piperidine]

Structure (SMILES) | inhibition [1] [%] | inhibition [2] [%] | 5-HT14 receptor actuating activity (%) [3] [%]
COc1ccc(Br)c(CC2CCN(CCc3cccc4ccccc34)CC2)c1 [Example 54, N-(2-(1-naphthyl)ethyl)-4-(2-bromo-5-methoxybenzyl)piperidine] | 92 | 73 | 
COc1ccc(Br)c(CC2CCN(CCc3ccccc3)CC2)c1 [Example 11, N-phenethyl-4-(2-bromo-5-methoxybenzyl)-piperidine] | 96 | 82 | 32
